Experimental data reported in paper PMC12195967, “Cobalt(II) Complexes of 4′–Nitro–Fenamic Acid: Characterization and Biological Evaluation” (Molecules, 2025).
Like-named read-outs stand apart in the source and are kept apart here.

Legend:
[1] = system: X. campestris, E. coli, B. subtilis and S. aureus; test: Antibacterial activity, MIC summarised over the bacteria tested; type: cell-based; conditions: read-out: MIC values against the bacteria tested
Method: buffer (50 mM, pH 7.4). The absorbance was measured at 230 nm after 10 min. The antioxidant activity (reduction of H2O2) of the compounds was expressed as the percentage decrease of the initial H2O2 solution (H2O2%). L−ascorbic acid (or vitamin C) was used as a […]
S2 Antibacterial Activity studies
The antibacterial activity of the compounds was evaluated by determining their respective MIC values towards two Gram–(–) (Escherichia coli XL1 (E. coli) and Xanthomonas campestris ATCC 1395 (X. campestris)) and two Gram–(+) (Staphylococcus aureus ATCC 29213 (S. aureus) and Bacillus subtilis ATCC 6633 (B. subtilis)) bacterial species. Cultures of these microbial strains were grown on a rich selective agar medium and stored at 4°C. The selective media used were Nutrient Agar or Broth for B. subtilis and S. aureus, Yeast Mold Agar or Broth for X. campestris and Luria Agar or Broth for E. coli. Cells picked from the surface of the stored cultures were used to initiate liquid pre–cultures of the same selective medium at an initial turbidity of roughly 1 McFarland unit.
Pre–cultures were incubated for 24 h in a rotary shaking incubator and subsequently […]
progressive double dilution.

[2] = system: supercoiled circular pBR322 plasmid DNA; test: Cleavage and photocleavage of plasmid DNA (gel electrophoresis); type: biochemical; conditions: compound 500 μM
Method: The cleavage of pBR322 plasmid DNA was evaluated both in the presence and absence of irradiation in order to further explore the interaction of the synthesized compounds with DNA and their possible biological efficacy. […] Following incubation of the samples at 37 °C, the impact of the compounds on pDNA was assessed using gel electrophoresis on 1% agarose gels stained with EB. Irradiation at 312 nm (UVB for 30 min), at 365 nm (UVA, for 120 min) or visible light (for 120 min) was also applied to further investigate the possibility of photocleavage activity of the compounds. […] The extent of pDNA damage from each compound was assessed by calculating the percentage of ss% and ds% using Equations (S4) and (S5).
S3.4 EB−displacement studies
The competition of the compounds with EB was investigated by fluorescence emission spectroscopy to examine whether the compounds can displace EB from its DNA−EB adduct. […] The solutions were excited at 540 nm and the emission was monitored from 550−700 nm with λmax = 592−594 nm and the effect of the addition of the compounds to the CT−DNA EB solution was recorded. […]
fluorescence emission bands at room temperature in solution or in the presence of CT DNA or EB under the same experimental conditions (λexcitation = 540 nm); therefore, the observed quenching of the EB−DNA solution may be attributed to the displacement of EB from its […]

SMILES | MIC [1] | MIC ([1]; summary over the four strains) | total pDNA damage ([2]; dark, 150 min) | pDNA damage ([2]; UVB irradiation 312 nm, 30 min)
O=C(O)c1ccccc1Nc1ccc([N+](=O)[O-])cc1 [4′–NO2–fenH, 4′–nitrofenamic acid] | 48 to 97 µM | 12.5 to 25 µg/mL | 57% | 
O=C([O-])c1ccccc1Nc1ccc([N+](=O)[O-])cc1.O=C([O-])c1ccccc1Nc1ccc([N+](=O)[O-])cc1.[Co+2].c1cnc2c(c1)ccc1cccnc12 [Complex 3, [Co(4′–NO2–fen)2(phen)]] |  |  |  | 89%
